Laboratory results from ChEMBL document CHEMBL1201862, “PubChem BioAssay data set” (2004).
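Interpolation was linear, between the two tested concentrations surrounding the appropriate level; five concentrations were tested over 48 hours in 96-well plates. GI50: concentration for 50% inhibition of growth.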 The source made the active and inactive calls. Cut-off read from the data, not from the text of the source: active = GI50 up to about 1.1 µM and inactive = higher.

Assays:
Test in all cases: growth of human tumour cells (NCI), 48 h
OVCAR-8 = tested on: OVCAR-8
SK-MEL-5 = tested on: SK-MEL-5
SF-295 = tested on: SF-295
SNB-75 = tested on: SNB-75
SK-OV-3 = tested on: SK-OV-3
HOP-62 = tested on: HOP-62
EKVX = tested on: EKVX
CAKI-1 = tested on: CAKI-1
U-251 = tested on: U-251
RXF 393 = tested on: RXF 393
HCC 2998 = tested on: HCC 2998
MOLT-4 = tested on: MOLT-4
CCRF-CEM = tested on: CCRF-CEM
Malme-3M = tested on: Malme-3M
HCT-116 = tested on: HCT-116
A549 = tested on: A549
SN12C = tested on: SN12C
TK-10 = tested on: TK-10
HT-29 = tested on: HT-29
UACC-62 = tested on: UACC-62

Measured: GI50

O=C(N[C@H]1c2ccsc2/C(=N/O)[C@H]1O)C(F)(F)F
inactive: OVCAR-8 > 100 µM | SK-MEL-5 > 100 µM | SF-295 > 100 µM | SNB-75 > 100 µM | SK-OV-3 > 100 µM | HOP-62 > 100 µM | EKVX > 100 µM | CAKI-1 > 100 µM | U-251 > 100 µM | RXF 393 > 100 µM | HCC 2998 > 100 µM | MOLT-4 > 100 µM | CCRF-CEM > 100 µM | Malme-3M > 100 µM | HCT-116 > 100 µM | A549 > 100 µM | SN12C > 100 µM | TK-10 > 100 µM | HT-29 > 100 µM | UACC-62 > 100 µM

C[C@]12CC[C@H]3[C@@H](CC=C4C[C@@H](O)CC[C@@]43C)[C@@H]1C/C(=C\c1ccc([N+](=O)[O-])cc1)[C@@H]2O
inactive: OVCAR-8 10.9 µM | SK-MEL-5 6.81 µM | SF-295 16.8 µM | SNB-75 17.4 µM | SK-OV-3 13.7 µM | HOP-62 11.7 µM | EKVX 10.6 µM | CAKI-1 13.8 µM | RXF 393 9.71 µM | HCC 2998 11.7 µM | MOLT-4 4.18 µM | CCRF-CEM 5.14 µM | Malme-3M 16 µM | HCT-116 3.92 µM | A549 10.4 µM | SN12C 10.6 µM | TK-10 19.4 µM | HT-29 5.83 µM | UACC-62 10.6 µM

CCCCn1cc[n+](-c2nc3ccccc3n2C)c1
inactive: OVCAR-8 > 100 µM | SK-MEL-5 > 100 µM | SF-295 > 100 µM | SNB-75 45.4 µM | SK-OV-3 > 100 µM | HOP-62 > 100 µM | EKVX > 100 µM | CAKI-1 > 100 µM | U-251 > 100 µM | RXF 393 > 100 µM | HCC 2998 > 100 µM | MOLT-4 > 100 µM | CCRF-CEM > 100 µM | Malme-3M > 100 µM | HCT-116 > 100 µM | A549 > 100 µM | SN12C > 100 µM | TK-10 > 100 µM | HT-29 > 100 µM | UACC-62 > 100 µM

CC(C)OP(=O)(OC(C)C)c1ncn(-c2ccc([N+](=O)[O-])cc2)n1
inactive: OVCAR-8 > 100 µM | SK-MEL-5 > 100 µM | SF-295 > 100 µM | SNB-75 41.1 µM | SK-OV-3 > 100 µM | HOP-62 > 100 µM | EKVX > 100 µM | CAKI-1 > 100 µM | U-251 > 100 µM | RXF 393 > 100 µM | HCC 2998 86.7 µM | MOLT-4 > 100 µM | CCRF-CEM > 100 µM | Malme-3M > 100 µM | HCT-116 > 100 µM | A549 > 100 µM | SN12C > 100 µM | TK-10 > 100 µM | HT-29 > 100 µM | UACC-62 > 100 µM

ClCCCN1CCCCC1CCl (stereo not drawn)
inactive: OVCAR-8 > 100 µM | SK-MEL-5 > 100 µM | SF-295 70.1 µM | SNB-75 68.4 µM | SK-OV-3 > 100 µM | HOP-62 90.8 µM | CAKI-1 26.7 µM | U-251 > 100 µM | RXF 393 > 100 µM | HCC 2998 > 100 µM | MOLT-4 39.4 µM | CCRF-CEM 20.9 µM | Malme-3M > 100 µM | HCT-116 > 100 µM | A549 > 100 µM | SN12C > 100 µM | TK-10 > 100 µM | HT-29 > 100 µM | UACC-62 43.7 µM
